# Test results published in PubChem BioAssay (NCI).
#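 Each compound was tested at five concentrations against cells in 96-well plates for 48 hours. TGI marks complete inhibition of growth.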
# Key:
# Assay in all cases: NCI tumour cell line growth inhibition, 48 h
# NCI-H226 lung = test system: NCI-H226 lung
# DMS 114 small cell lung = test system: DMS 114 small cell lung
# CAKI-1 renal = test system: CAKI-1 renal
# NCI-H460 lung = test system: NCI-H460 lung
# NCI-H522 lung = test system: NCI-H522 lung
# A498 renal = test system: A498 renal
# DMS 273 small cell lung = test system: DMS 273 small cell lung
# SF-268 CNS = test system: SF-268 CNS
# SNB-78 CNS = test system: SNB-78 CNS
# SK-MEL-2 melanoma = test system: SK-MEL-2 melanoma
# K-562 leukemia = test system: K-562 leukemia
# NCI/ADR-RES ovarian = test system: NCI/ADR-RES ovarian
# SN12C renal = test system: SN12C renal
# IGROV1 ovarian = test system: IGROV1 ovarian
# HOP-62 NSCLC = test system: HOP-62 NSCLC
# HCC-2998 colon = test system: HCC-2998 colon
# KM12 colon = test system: KM12 colon
# SF-539 CNS = test system: SF-539 CNS
# SK-OV-3 ovarian = test system: SK-OV-3 ovarian
# P388 leukemia = test system: P388 leukemia
# HOP-92 NSCLC = test system: HOP-92 NSCLC
# MCF7 breast = test system: MCF7 breast
# OVCAR-3 ovarian = test system: OVCAR-3 ovarian
# LOX IMVI melanoma = test system: LOX IMVI melanoma
# DLD-1 colon = test system: DLD-1 colon
# HL-60(TB) leukemia = test system: HL-60(TB) leukemia
# P388/ADR leukemia = test system: P388/ADR leukemia
# OVCAR-5 ovarian = test system: OVCAR-5 ovarian
# UO-31 renal = test system: UO-31 renal
# SW-620 colon = test system: SW-620 colon
# EKVX NSCLC = test system: EKVX NSCLC
# UACC-257 melanoma = test system: UACC-257 melanoma
# XF 498 CNS = test system: XF 498 CNS
# HOP-18 NSCLC = test system: HOP-18 NSCLC
# SF-295 CNS = test system: SF-295 CNS
# HT29 colon = test system: HT29 colon
# CCRF-CEM leukemia = test system: CCRF-CEM leukemia
# OVCAR-8 ovarian = test system: OVCAR-8 ovarian
# A549 NSCLC = test system: A549 NSCLC
# OVCAR-4 ovarian = test system: OVCAR-4 ovarian
# SNB-75 CNS = test system: SNB-75 CNS
# U251 CNS = test system: U251 CNS
# KM20L2 colon = test system: KM20L2 colon
# MOLT-4 leukemia = test system: MOLT-4 leukemia
# SK-MEL-28 melanoma = test system: SK-MEL-28 melanoma
# SK-MEL-5 melanoma = test system: SK-MEL-5 melanoma
# NCI-H23 lung = test system: NCI-H23 lung
# RPMI-8226 leukemia = test system: RPMI-8226 leukemia
# COLO 205 colon = test system: COLO 205 colon
# UACC-62 melanoma = test system: UACC-62 melanoma
# RXF 393 renal = test system: RXF 393 renal
# HCT-116 colon = test system: HCT-116 colon
# SNB-19 CNS = test system: SNB-19 CNS
# M19-MEL melanoma = test system: M19-MEL melanoma
# SN12K1 renal = test system: SN12K1 renal
# HCT-15 colon = test system: HCT-15 colon
# DU-145 prostate = test system: DU-145 prostate
# MDA-MB-231 breast = test system: MDA-MB-231 breast
# MDA-N = test system: MDA-N
# LXFL 529 NSCLC = test system: LXFL 529 NSCLC
# MALME-3M melanoma = test system: MALME-3M melanoma
# MDA-MB-435 = test system: MDA-MB-435
# SR leukemia = test system: SR leukemia
# ACHN renal = test system: ACHN renal
# 786-0 renal = test system: 786-0 renal
# M14 melanoma = test system: M14 melanoma
# BT-549 breast = test system: BT-549 breast
# T-47D breast = test system: T-47D breast
# HS 578T breast = test system: HS 578T breast
# TK-10 renal = test system: TK-10 renal
# PC-3 prostate = test system: PC-3 prostate
# RXF-631 renal = test system: RXF-631 renal
smiles,measurement,setting,value
COc1ccc(-c2nc3ccc([N+](=O)[O-])cc3c(=O)[nH]2)cc1,TGI,NCI-H226 lung,59.1 µM
same,TGI,DMS 114 small cell lung,> 100 µM
same,TGI,CAKI-1 renal,> 86.7 µM
same,TGI,NCI-H460 lung,> 100 µM
same,TGI,NCI-H522 lung,90.5 µM
same,TGI,A498 renal,> 100 µM
same,TGI,DMS 273 small cell lung,> 100 µM
same,TGI,SF-268 CNS,67.3 µM
same,TGI,SNB-78 CNS,71.8 µM
same,TGI,SK-MEL-2 melanoma,> 100 µM
same,TGI,K-562 leukemia,> 100 µM
same,TGI,NCI/ADR-RES ovarian,> 100 µM
same,TGI,SN12C renal,> 100 µM
same,TGI,IGROV1 ovarian,71.5 µM
same,TGI,HOP-62 NSCLC,> 67.7 µM
same,TGI,HCC-2998 colon,> 100 µM
same,TGI,KM12 colon,> 100 µM
same,TGI,SF-539 CNS,29.7 µM
same,TGI,SK-OV-3 ovarian,29.3 µM
same,TGI,P388 leukemia,> 100 µM
same,TGI,HOP-92 NSCLC,45.8 µM
same,TGI,MCF7 breast,> 100 µM
same,TGI,OVCAR-3 ovarian,64.3 µM
same,TGI,LOX IMVI melanoma,> 100 µM
same,TGI,DLD-1 colon,> 100 µM
same,TGI,HL-60(TB) leukemia,> 100 µM
same,TGI,P388/ADR leukemia,> 100 µM
same,TGI,OVCAR-5 ovarian,> 100 µM
same,TGI,UO-31 renal,> 100 µM
same,TGI,SW-620 colon,> 100 µM
same,TGI,EKVX NSCLC,> 100 µM
same,TGI,UACC-257 melanoma,> 100 µM
same,TGI,XF 498 CNS,46.3 µM
same,TGI,HOP-18 NSCLC,> 100 µM
same,TGI,SF-295 CNS,> 63.3 µM
same,TGI,HT29 colon,> 100 µM
same,TGI,CCRF-CEM leukemia,> 100 µM
same,TGI,OVCAR-8 ovarian,> 72.2 µM
same,TGI,A549 NSCLC,> 100 µM
same,TGI,OVCAR-4 ovarian,33.4 µM
same,TGI,SNB-75 CNS,31 µM
same,TGI,U251 CNS,> 64.3 µM
same,TGI,KM20L2 colon,> 100 µM
same,TGI,MOLT-4 leukemia,> 100 µM
same,TGI,SK-MEL-28 melanoma,> 100 µM
same,TGI,SK-MEL-5 melanoma,> 100 µM
same,TGI,NCI-H23 lung,> 86.8 µM
same,TGI,RPMI-8226 leukemia,> 100 µM
same,TGI,COLO 205 colon,> 100 µM
same,TGI,UACC-62 melanoma,> 100 µM
same,TGI,RXF 393 renal,> 75.6 µM
same,TGI,HCT-116 colon,> 79.4 µM
same,TGI,SNB-19 CNS,55.3 µM
same,TGI,M19-MEL melanoma,> 100 µM
same,TGI,SN12K1 renal,> 86.5 µM
same,TGI,HCT-15 colon,> 100 µM
CN1C(c2ccccc2)CC(=NOCc2ccccc2)CC1c1ccccc1 (stereo not given),TGI,NCI-H226 lung,84.8 µM
same,TGI,DMS 114 small cell lung,33.1 µM
same,TGI,CAKI-1 renal,> 80 µM
same,TGI,NCI-H460 lung,39.9 µM
same,TGI,DU-145 prostate,> 100 µM
same,TGI,NCI-H522 lung,56 µM
same,TGI,A498 renal,68.8 µM
same,TGI,DMS 273 small cell lung,> 100 µM
same,TGI,MDA-MB-231 breast,> 100 µM
same,TGI,SF-268 CNS,50.4 µM
same,TGI,SNB-78 CNS,> 100 µM
same,TGI,SK-MEL-2 melanoma,> 95.4 µM
same,TGI,MDA-N,> 56.3 µM
same,TGI,K-562 leukemia,44.3 µM
same,TGI,NCI/ADR-RES ovarian,42.4 µM
same,TGI,LXFL 529 NSCLC,30.8 µM
same,TGI,SN12C renal,62 µM
same,TGI,IGROV1 ovarian,62.1 µM
same,TGI,HOP-62 NSCLC,> 73.3 µM
same,TGI,HCC-2998 colon,> 100 µM
same,TGI,MALME-3M melanoma,> 87.8 µM
same,TGI,KM12 colon,47.9 µM
same,TGI,SF-539 CNS,> 75.6 µM
same,TGI,MDA-MB-435,39.2 µM
same,TGI,SK-OV-3 ovarian,> 96.9 µM
same,TGI,HOP-92 NSCLC,81 µM
same,TGI,MCF7 breast,> 56.8 µM
same,TGI,OVCAR-3 ovarian,58.7 µM
same,TGI,LOX IMVI melanoma,29.9 µM
same,TGI,DLD-1 colon,> 100 µM
same,TGI,HL-60(TB) leukemia,48.8 µM
same,TGI,OVCAR-5 ovarian,> 100 µM
same,TGI,UO-31 renal,> 73.7 µM
same,TGI,SR leukemia,87.1 µM
same,TGI,SW-620 colon,> 75.4 µM
same,TGI,EKVX NSCLC,> 69.3 µM
same,TGI,UACC-257 melanoma,> 97 µM
same,TGI,XF 498 CNS,> 100 µM
same,TGI,HOP-18 NSCLC,> 100 µM
same,TGI,SF-295 CNS,> 74.8 µM
same,TGI,HT29 colon,62.2 µM
same,TGI,CCRF-CEM leukemia,70.8 µM
same,TGI,OVCAR-8 ovarian,44.9 µM
same,TGI,A549 NSCLC,43 µM
same,TGI,OVCAR-4 ovarian,48.9 µM
same,TGI,ACHN renal,69.1 µM
same,TGI,SNB-75 CNS,62.1 µM
same,TGI,U251 CNS,55.2 µM
same,TGI,KM20L2 colon,> 100 µM
same,TGI,MOLT-4 leukemia,71.2 µM
same,TGI,786-0 renal,53.7 µM
same,TGI,M14 melanoma,> 78 µM
same,TGI,SK-MEL-28 melanoma,> 76.3 µM
same,TGI,BT-549 breast,30.6 µM
same,TGI,SK-MEL-5 melanoma,70.6 µM
same,TGI,T-47D breast,36 µM
same,TGI,NCI-H23 lung,71.5 µM
same,TGI,RPMI-8226 leukemia,> 100 µM
same,TGI,COLO 205 colon,88.6 µM
same,TGI,UACC-62 melanoma,> 76.3 µM
same,TGI,RXF 393 renal,> 84.7 µM
same,TGI,HS 578T breast,> 73.3 µM
same,TGI,HCT-116 colon,37.6 µM
same,TGI,TK-10 renal,70.9 µM
same,TGI,SNB-19 CNS,> 56.2 µM
same,TGI,M19-MEL melanoma,> 100 µM
same,TGI,PC-3 prostate,> 66.3 µM
same,TGI,HCT-15 colon,49.2 µM
same,TGI,RXF-631 renal,> 61.9 µM
